In PMC3822589 (Journal of Cellular and Molecular Medicine, 2013):
Read-outs that look alike come from different tables or passages of the source.

How the values were obtained:
[1] = tested on: Jak2V617F in γ2A-FRT-TI-Jak2V617F/STAT3-YFP cells; experiment: STAT3-YFP translocation assay; assay type: cell-based; conditions: read-out: IC50 values, STAT3-YFP translocation assay
[2] = tested on: Jak2V617F in HEK-V617F-STAT-Rep. cells; experiment: pSTAT-ZsGreen reporter gene assay; assay type: cell-based; conditions: 24 h, read-out: IC50 values, STAT-reporter gene assay
[3] = tested on: P-STAT5 in UKE-1 cells (Jak2V617F); experiment: Western blot of phospho-STAT5 in UKE-1 cells; assay type: cell-based; conditions: 2.5 μM, 3 hrs
HEL cells = experiment: Cell proliferation assay; assay type: cell-based, human
Jak2 = Jak2 (Homo sapiens, UniProt O60674); experiment: Jak2 in vitro kinase assay; assay type: biochemical; conditions: Caliper versus literature (Figure S5B)
[4] = tested on: P-STAT5 in BA/F3-EpoR-Jak2V617F cells; experiment: Western blot of phospho-STAT5 in BA/F3-EpoR-Jak2V617F cells; assay type: cell-based, murine; conditions: 2.5 μM, 3 hrs
[5] = tested on: Phospho-STAT5 (P-STAT5) levels in HEL cells (Jak2V617F); experiment: Western blot of phospho-STAT5 in HEL cells; assay type: cell-based, human; conditions: for IC50: mean ± SD
[6] = tested on: Jak2V617F phosphorylation (P-Jak2) in HEL cells; experiment: Western blot of phospho-Jak2 in HEL cells; assay type: cell-based, human; conditions: 0.5, 1 or 5 μM, 3 hrs
[7] = tested on: γ2A-FRT-TI-Jak2V617F/STAT3-YFP cells; experiment: Nuclei size by confocal imaging and Cell Profiler; assay type: cell-based; conditions: 24 hrs; Cell Profiler

Chain of Jak2 (O60674 whole entry): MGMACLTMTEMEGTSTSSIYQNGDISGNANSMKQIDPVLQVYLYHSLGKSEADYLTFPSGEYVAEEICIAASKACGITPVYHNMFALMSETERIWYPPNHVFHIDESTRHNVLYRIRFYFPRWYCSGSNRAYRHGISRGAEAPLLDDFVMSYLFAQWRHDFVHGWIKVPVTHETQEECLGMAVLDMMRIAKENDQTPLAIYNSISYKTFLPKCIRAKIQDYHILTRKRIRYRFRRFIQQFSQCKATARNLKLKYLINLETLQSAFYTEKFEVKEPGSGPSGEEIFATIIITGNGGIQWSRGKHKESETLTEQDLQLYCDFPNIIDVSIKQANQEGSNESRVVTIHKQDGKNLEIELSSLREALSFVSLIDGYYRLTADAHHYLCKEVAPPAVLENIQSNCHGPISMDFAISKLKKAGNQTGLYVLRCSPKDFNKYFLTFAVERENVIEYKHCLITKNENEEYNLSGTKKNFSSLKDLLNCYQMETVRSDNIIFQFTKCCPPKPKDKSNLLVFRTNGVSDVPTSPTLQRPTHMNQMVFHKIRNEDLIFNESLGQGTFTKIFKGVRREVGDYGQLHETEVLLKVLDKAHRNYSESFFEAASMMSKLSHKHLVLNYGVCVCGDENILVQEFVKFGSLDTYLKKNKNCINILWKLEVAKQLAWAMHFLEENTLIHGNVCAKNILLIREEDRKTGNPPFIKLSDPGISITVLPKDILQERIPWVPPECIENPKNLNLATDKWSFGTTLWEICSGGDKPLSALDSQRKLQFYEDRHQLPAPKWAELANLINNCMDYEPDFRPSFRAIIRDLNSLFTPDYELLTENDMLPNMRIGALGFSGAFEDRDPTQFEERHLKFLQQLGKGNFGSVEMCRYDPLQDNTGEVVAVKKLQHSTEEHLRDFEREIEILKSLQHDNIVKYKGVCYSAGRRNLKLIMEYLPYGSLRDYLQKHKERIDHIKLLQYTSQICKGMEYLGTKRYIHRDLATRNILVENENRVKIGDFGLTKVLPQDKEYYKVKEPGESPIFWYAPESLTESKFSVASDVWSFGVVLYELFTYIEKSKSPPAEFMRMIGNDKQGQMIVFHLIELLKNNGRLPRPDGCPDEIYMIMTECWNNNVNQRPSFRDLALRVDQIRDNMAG

- IC50 [1]: 0.459 ± 0.126 µM
- divergence between own and published in vitro kinase assay IC50 (Jak2): greater than 10 fold
- IC50 ([5]; Homo sapiens, HEL, read-out: IC50 values, WB (P-STAT5), HEL cells): ~0.6 µM
- IC50 ([5]; read-out: IC50 values, WB (P-STAT5), HEL cells): 0.633 ± 0.09 µM
SMILES: N#CCNC(=O)c1ccc(-c2ccnc(Nc3ccc(N4CCOCC4)cc3)n2)cc1 [CYT387]
- IC50 [2]: 0.794 ± 0.007 µM
- effect on phosphorylation of STAT5 (Western blot) [3]: efficiently decreased
- effect on proliferation of HEL cells (HEL cells; 0.3 or 1 μM, 72 hrs): showed the same effects but were less efficient
- IC50 (HEL cells; Homo sapiens, HEL, 72 h, read-out: IC50 values, Proliferation assay): 1.18 ± 0.413 µM
- effect on phosphorylation of STAT5 (Western blot) [4]: efficiently decreased
- effect on phosphorylation of STAT5 (Western blot) ([5]; HEL cells, 0.5, 1 or 5 μM, 3 hrs): showed the same effects but were less efficient
- effect on phosphorylation of Jak2 [6]: increased phosphorylation of Jak2
- concentration at which nuclei size increases [7]: did not have this effect
